Paper PMC6156427, “Characterization of NGFFYamide Signaling in Starfish Reveals Roles in Regulation of Feeding Behavior and Locomotory Systems” (Frontiers in Endocrinology, 2018)
No end group written: not given here.

Assays:
[1] = tested on: tube foot preparations from A. rubens; experiment: in vitro pharmacology, tube foot preparations; set-up: species or system Asterias rubens; details: read-out: half maximal response concentration (EC50), tonic contraction; tonic contraction of tube feet, 10^−9-10^−6 M; six measurements; 11°C; four-parameter curve
Procedure: Here, NGFFYamide was tested in vitro to investigate its effect on apical muscle and tube foot preparations from A. rubens, using the same methods reported previously when testing other neuropeptides ([53], [54], [56]). Briefly, the apical muscle was dissected from the aboral body wall of starfish arms and cut into segments approximately 1 cm in length and cotton ligatures were tied at each end. Tube foot preparations were obtained by dissecting from starfish arms a small square-shaped piece of ambulacral body wall containing a single tube foot podium and its associated ampullae. […] A relaxant effect of NGFFYamide on apical muscle preparations was expressed as a percentage reversal of the maximal contraction induced by 10^−6 M ACh. […] For phasic contractions, peak amplitude and frequency were quantified over a 5-min recording period and expressed as mean amplitude and mean peaks/minute, respectively. For in vitro characterization of the effects of NGFFYamide on tube foot preparations, a concentration-response curve was fitted with a four-parameter curve and the EC50 value was calculated based on six measurements. The in vitro effect of NGFFYamide on basal tone was analyzed by one-way ANOVA using Bonferroni's multiple comparisons post-hoc test. […]

rats = details: ref [9]; cited from earlier work
Description: (§1) Thus, nothing was known about its physiological roles when NPS was first identified. […] Furthermore, evidence that the anxiolytic effect ...

rodents = details: ref [76]; cited from earlier work
Description: as §1

mammals = details: ref [15], [18], [72]–[75]; cited from earlier work
Description: as §1

[2] = tested on: "orphan" G-protein coupled receptor GPR154; details: ref [65]; cited from earlier work
Description: as §1

mice = details: ref [9], cited from earlier work
Description: as §1

[3] = tested on: NPS/CCAP-type receptor in the sea urchin S. purpuratus; details: ref [8]; cited from earlier work
Description: Evidence that NG peptides are orthologs of vertebrate NPS-type neuropeptides was provided by analysis of the sequence of the NG peptide precursor in the cephalochordate B. floridae, which comprises two copies of a peptide (SFRNGVG) that is identical to the N-terminal region of NPS ([…]) ([34]). However, definitive proof was provided with the discovery that an NPS/CCAP-type receptor in the sea urchin S. purpuratus is activated by the neuropeptide NGFFFamide ([8]). Thus, a bilaterian neuropeptide family comprising NPS in vertebrates, NG peptides in invertebrate deuterostomes and ...

[4] = tested on: tube foot preparations from the sea urchin E. esculentus; details: Echinus esculentus; ref [35]; cited from earlier work
Description: (§2) Having analyzed both the anatomical expression pattern and bioactivity of NGFFYamide in the starfish A. rubens, it is of interest to make comparisons with what is known about the physiological roles of NG peptides in other echinoderms. The first NG peptide to be identified in an echinoderm was NGIWYamide, which was isolated from the sea cucumber A. japonicus on account of its effect in causing contraction of longitudinal body wall muscles in this species ([42]).

[5] = tested on: esophagus preparations from the sea urchin E. esculentus; details: Echinus esculentus; ref [35]; cited from earlier work
Description: as §2

[6] = tested on: apical muscle preparations from A. rubens; details: ACh 10^−6 M; ref [54], [57]; cited from earlier work
Procedure: Investigation of the physiological roles of NG peptides in echinoderms was advanced most recently with the discovery of the precursor of the NG peptide NGFFYamide (NGFFY-NH2) in the starfish A. rubens. Research on neuropeptide systems in this species led to the discovery of the first echinoderm neuropeptides to be sequenced—the SALMFamide neuropeptides S1 and S2 ([45]). […] Here, NGFFYamide was tested in vitro to investigate its effect on apical muscle and tube foot preparations from A. rubens, using the same methods reported previously when testing other neuropeptides ([53], [54], [56]). Briefly, the apical muscle was dissected from the aboral body wall of starfish arms and cut into segments approximately 1 cm in length and cotton ligatures were tied at each end. […] Thus, NGFFYamide precursor-expressing cells are present in the coelomic lining of the apical muscle, a thickening of the longitudinally orientated body wall muscle layer located in an aboral and sagittal position in each arm.

[7] = tested on: tube foot preparations from A. rubens; details: ACh 10^−6 M; ref [54], [57]; cited from earlier work
Procedure: Here, NGFFYamide was tested in vitro to investigate its effect on apical muscle and tube foot preparations from A. rubens, using the same methods reported previously when testing other neuropeptides ([53], [54], [56]). Briefly, the apical muscle was dissected from the aboral body wall of starfish arms and cut into segments approximately 1 cm in length and cotton ligatures were tied at each end. […] Thus, application of NGFFYamide triggered phasic contractions of tube feet that were superimposed upon an increase in basal tone. Furthermore, there was concentration-dependency in the effect of NGFFYamide on both the amplitude and the frequency of the phasic contractions. This action of NGFFYamide on tube feet is interesting because it is the first neuropeptide that we have ...

crustaceans = details: ref [25]; cited from earlier work
Description: (§3) Furthermore, there is substantial evidence that CCAP is one of several neuropeptides that regulate shedding of the exoskeleton (ecdysis) in arthropods. Thus, a dramatic increase in circulating levels of CCAP has been observed in two crustacean species during ecdysis ([26]).

oviduct = details: Locusta migratoria; ref [82]; cited from earlier work
Description: as §3

gut = details: cockroaches; ref [32], [83]; cited from earlier work
Description: as §3

moth Manduca sexta = details: ref [28], [78], [79]; cited from earlier work
Description: as §3

cockroach P. americana = details: ref [33]; cited from earlier work
Description: as §3

intestine preparations = details: A. japonicus; ref [43]; cited from earlier work
Description: as §2

tentacle preparations = details: A. japonicus; ref [43]; cited from earlier work
Description: as §2

[8] = tested on: longitudinal body wall muscle; details: A. japonicus; ref [43]; cited from earlier work
Description: as §2

[9] = tested on: oocyte maturation and spawning; details: A. japonicus; ref [44]; cited from earlier work
Description: as §2

[10] = tested on: body wall mutable collagenous tissue; details: A. japonicus; ref [64]; cited from earlier work
Description: as §2

NGFFY-NH2 [NGFFYamide] gave an EC50 [1] of 0.014 µM.

In the case of “SFRNGVGTGMKKTSFQRAKS [NPS, 20-residue neuropeptide first discovered in rodents]”, the wakefulness (rats) is given as “increases wakefulness”, the “food intake (increase, one study)” value (rodents) is given as “increase food intake” and the “food intake (inhibition)” value (mammals) is given as “inhibition of food intake”. The “ligand of GPR154” value [2] was “endogenous ligand”, the anxiolytic-like effects (mice; mice exposed to stressful conditions) was “anxiolytic-like effects” and the locomotor activity (mice) was “increases locomotor activity”.

In the case of NGFFF-NH2 [NGFFFamide], the “activation of NPS/CCAP-type receptor” value [3] is given as “activated”, the “contraction of tube foot preparations” value [4] is given as “contraction” and the “contraction of esophagus preparations” value [5] is given as “contraction”.

In the case of CC(=O)OCC[N+](C)(C)C [acetylcholine], the “contractant of starfish apical muscle” value [6] is listed as “known contractant” and the “contractant of starfish tube feet” value [7] is listed as “known contractant”.

In the case of “PFCNAFTGC-NH2 [CCAP, 9-residue neuropeptide first discovered in the crustacean Carcinus maenas]”, the cardioexcitatory effect (crustaceans) is listed as “cardioexcitatory”, the oviduct contractions (oviduct) is listed as “induction of oviduct contractions” and the “gut contraction and secretion of digestive enzymes” value (gut) is listed as “stimulation of gut contraction and secretion of digestive enzymes”. For the same compound, the ecdysis motor program (moth Manduca sexta) was “activates an ecdysis motor program” and the locomotor activity (cockroach P. americana) was “inhibition of locomotor activity”.

For NGIWYamide, the “spontaneous phasic contractions of intestine preparations” value (intestine preparations) is given as “inhibition”, the “contraction of tentacle preparations” value (tentacle preparations) is given as “tonic contraction” and the “contraction of longitudinal body wall muscle” value [8] is given as “tonic contraction”. The “oocyte maturation and spawning” value [9] was “induction of oocyte maturation and spawning” and the “effect on body wall mutable collagenous tissue” value [10] was “stiffening”.
